Test results from patent US12629374B2, “Antimalarial agents” (Merck Sharp & Dohme LLC, priority 2020, dated 2026).
Like-named read-outs stand apart in the source and are kept apart here.

System: ring stage parasites
Experiment: Parasite growth potency assay, 72 hours, LDH readout
Assay type: cell-based
Details: parasite growth measured by LDH assay after 72 hours at 37° C., 0.7% rings, 2% haematocrit, read-out: EC50
Procedure, shortened: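 Parasite growth was quantified by LDH assay after a −80 °C freeze-thaw. Before that, compound was incubated for 72 h at 37 °C under humidified gas with ring-stage cultures adjusted to 0.7% parasitemia and 2% haematocrit in serum- and albumax-supplemented RPMI-Hepes.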

Compound | EC50 (72 h) | further results
COCC[C@H](c1cc(F)cc(C(=O)N[C@@H]2c3ccccc3OC(C)(C)[C@H]2O)c1)N1C(=N)NC(C)(C)CC1=O [Example 174, [1-[1-[3-fluoro-5-[[(3S,4R)-3-hydroxy-2,2-dimethyl-chroman-4-yl]carbamoyl]phenyl]-3-methoxy-propyl]-4,4-dimethyl-6-oxo-hexahydropyrimidin-2-ylidene]ammonium; 2,2,2-trifluoroacetate] | 0.9 nM | 
CCC1(CC)CC(=O)N([C@@H](c2cccc(C(=O)N[C@H]3CCOc4ccccc43)c2)C23CC(C2)C3)C(=N)N1 [Example 32, [1-[1-bicyclo[1.1.1]pentanyl-[3-[[(4S)-chroman-4-yl]carbamoyl]phenyl]methyl]-4,4-diethyl-6-oxo-hexahydropyrimidin-2-ylidene]ammonium; 2,2,2-trifluoroacetate] | 2 nM | 
CCC1(CC)CC(=O)N(Cc2ccnc(C(=O)N[C@@H]3c4ccccc4C[C@H]3O)c2)C(=N)N1 [Example 36, [4,4-diethyl-1-[[2-[[(1R,2R)-2-hydroxyindan-1-yl]carbamoyl]-4-pyridyl]methyl]-6-oxo-hexahydropyrimidin-2-ylidene]ammonium; 2,2,2-trifluoroacetate] | 16.8 nM | 
CC[C@@]1(C)CC(=O)N([C@H](CCOC(F)F)c2cccc(C(=O)N[C@@H]3c4ccccc4C[C@H]3O)c2)C(=N)N1 [Example 172, [(4S)-1-[3-(difluoromethoxy)-1-[3-[[(1R,2R)-2-hydroxyindan-1-yl]carbamoyl]phenyl]propyl]-4-ethyl-4-methyl-6-oxo-hexahydropyrimidin-2-ylidene]ammonium; 2,2,2-trifluoroacetate] | 1.7 nM | 
CCC1(CC)CC(=O)N([C@H](CCOC)c2cc(F)cc(C(=O)N[C@H]3c4ccccc4CC3(C)O)c2)C(=N)N1 (single isomer, unassigned) [Example 144C, 3-[1-(4,4-diethyl-2-imino-6-oxo-hexahydropyrimidin-1-yl)-3-methoxy-propyl]-5-fluoro-N-(2-hydroxy-2-methyl-indan-1-yl)benzamide] |  | EC50: 99.5 nM
CCC1(COC)CC(=O)N(Cc2cccc(C(=O)N[C@H]3CC(C)(C)Oc4ccccc43)c2)C(=N)N1 (stereo partly drawn) [Example 98B, [1-[[3-[[(4S)-2,2-dimethylchroman-4-yl]carbamoyl]phenyl]methyl]-4-ethyl-4-(methoxymethyl)-6-oxo-hexahydropyrimidin-2-ylidene]ammonium; 2,2,2-trifluoroacetate] |  | EC50 (trifluoroacetate): 8.1 nM
CCC1(CC)CC(=O)N(Cc2cccc(C(=O)N[C@@H]3C[C@@H](C(F)(F)F)Oc4ccccc43)c2)C(=N)N1 (stereo in doubt) [Example 91B, [4,4-diethyl-6-oxo-1-[[3-[[2-(trifluoromethyl)chroman-4-yl]carbamoyl]phenyl]methyl]hexa-hydropyrimidin-2-ylidene]ammonium; 2,2,2-trifluoroacetate] | 63.7 nM | 
CC(C)[C@]1(C)CC(=O)N([C@H](c2ccccc2)c2cccc(C(=O)N[C@H]3CCOc4ccccc43)c2)C(=N)N1 [Example 9A, [(4S)-1-[(R)-[3-[[(4S)-chroman-4-yl]carbamoyl]phenyl]-phenyl-methyl]-4-isopropyl-4-methyl-6-oxo-hexahydropyrimidin-2-ylidene]ammonium; 2,2,2-trifluoroacetate] | 0.5 nM | 
CCC1(CC)CC(=O)N(C(c2cncc(C(=O)N[C@H]3CC(C)(C)Oc4ccccc43)c2)c2cncs2)C(=N)N1 (stereo partly drawn) [Example 105B, [1-[[5-[[(4S)-2,2-dimethylchroman-4-yl]carbamoyl]pyridin-1-ium-3-yl]-thiazol-5-yl-methyl]-4,4-diethyl-6-oxo-hexahydropyrimidin-2-ylidene]ammonium; 2,2,2-trifluoroacetate] |  | EC50 (trifluoroacetate): 0.6 nM
COCC[C@H](c1cccc(C(=O)N[C@@H]2c3ccccc3OC(C)(C)[C@H]2O)c1)N1C(=N)NC(C)(C)CC1=O [Example 178, [1-[(1R)-1-[3-[[(3S,4R)-3-hydroxy-2,2-dimethyl-chroman-4-yl]carbamoyl]phenyl]-3-methoxy-propyl]-4,4-dimethyl-6-oxo-hexahydropyrimidin-2-ylidene]ammonium; 2,2,2-trifluoroacetate] | 2.4 nM | 
